Like-named read-outs stand apart in the source and are kept apart here.
Experiments:
quails = conditions: cited from earlier work
[1] = system: carboxylesterase (CbE) in blood plasma; experiment: Inhibition rate constant (ki), blood plasma CbE (PSA substrate); type: biochemical, Japanese quail (Coturnix coturnix japonica); conditions: 4 mM methomyl, 2 mM parathion, malathion, trichlorfon, 1–60 min, 25°C, mean ± SE
Method: Blanks were also run at each selected inhibitor for each based on the absorbance tested. Then the enzyme activity was determined as described in above. The decrease in esterases enzyme activity over different times (1–60 min) at room temperature 25°C was detected. Then the data of inhibition time courses at different times after inhibition was fitted with a single exponential decay using SigmaPlot 11. However, the percentage inhibition was calculated from the ratio between the activity of an exposed sample and unexposed controls by the following formula: (1) % Inhibition =[…].

[2] = target: T1, cholinesterase (ChE) in blood plasma (Coturnix japonica, UniProt A0A8C2YFF6); experiment: In vivo oral exposure 48 h, plasma ChE inhibition; parameters: species or system Japanese quail (Coturnix coturnix japonica)
Method: The extent of inhibition of esterases enzyme activity was also assessed following in vivo exposure of test of quail by oral dosing (n = 15) were exposed to test solutions of parathion, malathion, methomyl, trichlorfon, or control (water) in cages. […] Samples were prepared and assayed as explained in the above section.

[3] = target: T1, cholinesterase (ChE) in blood plasma; experiment: Inhibition rate constant (ki), blood plasma ChE (thiocholine substrates); conditions: for ki value, range: blood plasma, range over the substrates AcTChI, BuTChI, PrTChI and PSA
Method: (§1) Enzyme activity was determined at room temperature 25°C by the Ellman method [18], and using thioacetate (PSA) for measuring CbE enzyme activity or by using thiocholine (e.g., AcTChI, BuTChI, or PrTChI substrate) for measuring ChE enzyme activities [19]. […] Substrate solutions (final concentration 2 mM for PrTChI and PSA, while 1 mM for AcTChI and BuTChI) were prepared and used on the same day and kept on ice during use. Enzyme activities were calculated using an extinction coefficient of 13.6 mM^−1 cm^−1 for TNB [21] and are expressed as units (1 U ≡ 1 μmol ≡ 1000 nmol of substrate hydrolysed per min) per g wet weight of liver homogenate, while for plasma they are expressed as U/mL [2]. All measurements in this paper were carried out in duplicate.
Controls that were incubated with phosphate buffer pH 8.0 were included when appropriated. Blanks were also run at each selected inhibitor for each based on the absorbance tested. Then the enzyme activity was determined as described in above. The decrease in esterases enzyme activity over different times (1–60 min) at room temperature 25°C was detected. Then the data of inhibition time courses at different times after inhibition was fitted with a single exponential decay using SigmaPlot 11. However, the percentage inhibition was calculated from the ratio between the activity of an exposed sample and unexposed controls by the following formula: (1) % Inhibition =Esterases enzyme activity with inhibitor/Esterases enzyme activity without inhibitor×100.

[4] = target: carboxylesterase (CbE) in blood plasma; experiment: In vitro inhibition of blood plasma CbE by CB/OP pesticides (Ellman, PSA substrate); type: biochemical, Japanese quail (Coturnix coturnix japonica); conditions: for IC50: substrate PSA, 30 min 25°C, mean ± SE, read-out: Half maximal inhibitory concentration (IC50), PSA
Method: To obtain plasma, 1 mL blood samples were added to anticoagulant (heparin, 3.7 mg, final concentration 0.1%) in 5 mL centrifuge tubes. Plasma was separated by centrifugation at 5000 g for 10 min.
as §1
Then esterases enzyme activity was measured as explained in the above section. For the measurement of half maximal inhibitory concentrations (IC50), samples were inhibited for 30 min at room temperature 25°C with appropriate concentration of CB or OP pesticide compounds, depending on preliminary range finding tests. Controls that were incubated with phosphate buffer pH 8.0 were included. Then the enzyme activity was determined as described above. Then the data were fitted with nonlinear regression analysis using a single exponential decay by SigmaPlot 11 (Systat software, Inc.).

[5] = system: carboxylesterase (CbE) in liver homogenate; experiment: Substrate hydrolysis and kinetics, liver homogenate CbE (PSA); type: biochemical, Japanese quail (Coturnix coturnix japonica)
Method: (§2) To obtain plasma, 1 mL blood samples were added to anticoagulant (heparin, 3.7 mg, final concentration 0.1%) in 5 mL centrifuge tubes. Plasma was separated by centrifugation at 5000 g for 10 min. The liver was removed using a scalpel, cut into small pieces (2-3 mm^3), and rinsed until the blood was fully removed. The liver was then placed on ice in 5 mL tubes (5 mm internal diameter) and homogenized using a mechanically driven homogenizer with phosphate buffer (0.1 M, pH 8) with a 1 : 10 ratio (w/v) of 1 part of liver tissue to 9 parts of buffer and a speed of 10000 rpm. Homogenisation required 3 min; after every one min or so of homogenization, the mixture was rested for 30 s to allow cooling. The homogenate was then centrifuged at 5000 g for 10 min and the supernatant fraction was retained and used for subsequent analyses.
as §1

[6] = system: carboxylesterase (CbE) in blood plasma; experiment: Substrate hydrolysis, blood plasma CbE (PSA); type: biochemical, Japanese quail (Coturnix coturnix japonica); conditions: 2 mM PSA
Method: as §2
(§3) Enzyme activity was determined at room temperature 25°C by the Ellman method [18], and using thioacetate (PSA) for measuring CbE enzyme activity or by using thiocholine (e.g., AcTChI, BuTChI, or PrTChI substrate) for measuring ChE enzyme activities [19]. […] Enzyme activities were calculated using an extinction coefficient of 13.6 mM^−1 cm^−1 for TNB [21] and are expressed as units (1 U ≡ 1 μmol ≡ 1000 nmol of substrate hydrolysed per min) per g wet weight of liver homogenate, while for plasma they are expressed as U/mL [2]. […]

[7] = target: T1, cholinesterase (ChE) in blood plasma; experiment: Substrate hydrolysis and kinetics, blood plasma ChE; type: biochemical, Japanese quail (Coturnix coturnix japonica); conditions: for reaction rate of substrate hydrolysis, plasma: blood plasma, 1 mM AcTChI, BuTChI, 2 mM PrTChI
Method: as §2, §1

[8] = system: cholinesterase (ChE) in liver homogenate; experiment: Substrate hydrolysis, liver homogenate ChE; type: biochemical, Japanese quail (Coturnix coturnix japonica); conditions: 1 mM AcTChI, BuTChI, 2 mM PrTChI
Method: as §2, §3

CbE enzyme = experiment: Incubation with general serine esterase inhibitor, CbE activity; type: biochemical, Japanese quail (Coturnix coturnix japonica); conditions: 3 mM inhibitor
ChE enzyme = experiment: Incubation with general serine esterase inhibitor, ChE activity; type: biochemical, Japanese quail (Coturnix coturnix japonica); conditions: 3 mM inhibitor
[9] = read-out: inhibition of control activity

T1 sequence (A0A8C2YFF6 30-604): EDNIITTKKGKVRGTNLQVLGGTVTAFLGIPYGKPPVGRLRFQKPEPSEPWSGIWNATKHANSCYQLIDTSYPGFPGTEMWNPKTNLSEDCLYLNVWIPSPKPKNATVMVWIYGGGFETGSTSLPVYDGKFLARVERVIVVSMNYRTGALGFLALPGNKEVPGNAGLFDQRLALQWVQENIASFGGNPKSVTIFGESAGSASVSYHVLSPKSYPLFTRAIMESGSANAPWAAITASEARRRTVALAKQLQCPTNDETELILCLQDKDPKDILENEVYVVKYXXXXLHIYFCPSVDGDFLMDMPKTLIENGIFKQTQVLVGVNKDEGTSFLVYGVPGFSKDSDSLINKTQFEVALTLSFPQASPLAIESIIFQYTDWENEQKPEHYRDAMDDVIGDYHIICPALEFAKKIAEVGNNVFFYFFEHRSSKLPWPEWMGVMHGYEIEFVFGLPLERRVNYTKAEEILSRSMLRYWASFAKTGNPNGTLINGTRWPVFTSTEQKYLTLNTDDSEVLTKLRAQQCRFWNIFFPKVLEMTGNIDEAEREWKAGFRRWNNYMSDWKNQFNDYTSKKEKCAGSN

SMILES: COP(=O)(OC)C(O)C(Cl)(Cl)Cl (stereo not shown) [Trichlorfon, dimethyl (2,2,2-trichloro-1-hydroxyethyl) phosphonate]
- median lethal dose (LD50) (quails; oral, quails): 22 mg/kg
- Rate constant inhibition (ki), PSA [1]: 976.9 ± 8.9 × 10^−3 min^−1
- inhibition at 11 mg/kg ([2]; read-out: % inhibition compared with the control, plasma, AcTChI): 12.1%
- inhibition at 11 mg/kg ([2]; read-out: % inhibition compared with the control, plasma, BuTChI): 33.2%
- inhibition at 11 mg/kg ([2]; read-out: % inhibition compared with the control, plasma, PrTChI): 11.7%
- ki value, range [3]: 0.3451 to 0.9769 min⁻¹
- IC50 [4]: 510 ± 90 µM

SMILES: CNC(=O)ON=C(C)SC [Methomyl, S-methyl-N((methylcarbamoyl)oxy) thioacetimidate]
- median lethal dose (LD50) (quails; in vivo, po): 24.2 mg/kg
- Rate constant inhibition (ki), PSA [1]: 345.3 ± 12.4 × 10^−3 min^−1
- ki value, range [3]: 0.1224 to 0.5674 min⁻¹
- inhibition at 4000 µM [3, 9]: 83 to 99%
- CbE enzyme activity sensitivity to inhibition ([4]; in vitro, PSA, Figure 10(a)): insensitive to the CB methomyl except at high concentrations
- IC50 [4]: 610 ± 20 µM

SMILES: CC(=O)Sc1ccccc1 [PSA, thiophenyl acetate]
- Vmax ([5]; liver CbE, Figure 4(b)): 1195 nmol/min/g
- Km ([5]; liver CbE, substrate 0.25–4 mM, read-out: apparent Km): 713 µM
- reaction rate of substrate hydrolysis, liver homogenate ([5]; liver homogenate, 2 mM PSA): 1.765 µmol/min/g
- reaction rate of substrate hydrolysis, plasma [6]: 68.9 nmol/min/mL

SMILES: CCC(=O)SCC[N+](C)(C)C.[I-] [PrTChI, (2-mercaptoethyl) trimethylammonium iodide propionate]
- reaction rate of substrate hydrolysis, plasma [7]: 211.9 nmol/min/mL
- reaction rate of substrate hydrolysis, liver homogenate [8]: 113.9 nmol/min/g

SMILES: CCCC(=O)SCC[N+](C)(C)C.[I-] [BuTChI, (2-mercaptoethyl) trimethylammonium iodide butyrate]
- Vmax ([7]; blood plasma ChE, Figure 4(a)): 1011 nmol/min/mL
- Km ([7]; blood plasma ChE, substrate 0.125–2 mM, read-out: Km (apparent Michaelis constant)): 394 µM
- reaction rate of substrate hydrolysis, plasma [7]: 1321.5 nmol/min/mL
- reaction rate of substrate hydrolysis, liver homogenate [8]: 304.5 nmol/min/g

SMILES: CCOP(=S)(OCC)Oc1ccc([N+](=O)[O-])cc1 [Parathion, O,O-diethyl O-(4-nitrophenyl) phosphorothioate]
- median lethal dose (LD50) (quails; oral, quails): 6 mg/kg
- Rate constant inhibition (ki), PSA [1]: 453.2 ± 5.6 × 10^−3 min^−1
- ki value, range [3]: 0.4532 to 0.8233 min⁻¹
- IC50 [4]: 220 ± 60 µM

SMILES: CCOC(=O)CC(SP(=S)(OC)OC)C(=O)OCC (stereo not shown) [Malathion, S-1,2-bis(ethoxycarbonyl) ethyl O,O-dimethyl phosphorodithioate]
- median lethal dose (LD50) (quails; oral, quails): 400 mg/kg
- Rate constant inhibition (ki), PSA [1]: 175.6 ± 16.0 × 10^−3 min^−1
- ki value, range [3]: 0.0358 to 0.1756 min⁻¹
- inhibition at 2000 µM [3, 9]: 83 to 99%
- IC50 [4]: 910 ± 400 µM

SMILES: O=S(=O)(F)Cc1ccccc1 [phenylmethanesulfonyl fluoride]
- level of CbE enzyme activity after incubation (CbE enzyme): insignificant levels
- level of ChE enzyme activity after incubation (ChE enzyme): insignificant levels

— paper PMC3913017, “A Method for Fast Assessment of OP/CB Exposure in the Japanese Quail (Coturnix coturnix japonica) Using Combined Esterases Enzyme Activity as Biomarkers” (Enzyme Research, 2014)
